According to PubChem BioAssay AID248 (DTP/NCI, 2004):
Inconclusive results and toxic doses are left out. Rule as the data show it: active = T/C of 150% or more; inactive = T/C below 125%.

Test system: L1210 leukemia ip in BDF1 mice, survival T/C
Experiment: NCI In Vivo Anticancer Drug Screen. Data for tumor model L1210 Leukemia (intraperitoneal) in B6D2F1 (BDF1) mice
Settings: endpoint: mean survival time, higher = longer survival
Summary of the method: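 Survival endpoint. Drug-treated group vs vehicle group, expressed as T divided by C. Tumor passaged by transplantation.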

[1] = dose: 100.0 mg/kg/injection, schedule: Q01DX001 (ip), vehicle: carboxymethylcellulose (CMC)
[2] = dose: 200.0 mg/kg/injection, schedule: Q01DX001 (ip), vehicle: carboxymethylcellulose (CMC)
[3] = dose: 400.0 mg/kg/injection, schedule: Q01DX001 (ip), vehicle: carboxymethylcellulose (CMC)
[4] = dose: 100.0 mg/kg/injection, schedule: Q01DX009 (ip), vehicle: saline with Tween-80
[5] = dose: 200.0 mg/kg/injection, schedule: Q01DX009 (ip), vehicle: saline with Tween-80
[6] = dose: 50.0 mg/kg/injection, schedule: Q01DX009 (ip), vehicle: Klucel (hydroxypropylcellulose) (HPC)
[7] = dose: 100.0 mg/kg/injection, schedule: Q01DX009 (ip), vehicle: Klucel (hydroxypropylcellulose) (HPC)
[8] = dose: 200.0 mg/kg/injection, schedule: Q01DX009 (ip), vehicle: Klucel (hydroxypropylcellulose) (HPC)
[9] = dose: 400.0 mg/kg/injection, schedule: Q01DX009 (ip), vehicle: saline with Tween-80
[10] = dose: 25.0 mg/kg/injection, schedule: Q01DX009 (ip), vehicle: Klucel (hydroxypropylcellulose) (HPC)
[11] = dose: 100.0 mg/kg/injection, schedule: Q01DX001 (ip), vehicle: saline
[12] = dose: 200.0 mg/kg/injection, schedule: Q01DX001 (ip), vehicle: saline
[13] = dose: 400.0 mg/kg/injection, schedule: Q01DX001 (ip), vehicle: saline

Measured: T/C

CC(=O)O[C@H]1C[C@@]2(C)[C@@H](C[C@@H](O)[C@H]3[C@@]4(C)CC[C@@H](O)[C@@H](C)[C@@H]4CC[C@@]32C)/C1=C(\CCC=C(C)C)C(=O)O
inactive: dose: 50.0 mg/kg/injection, schedule: Q01DX009 (sc), vehicle: steriod suspending solution 95 % of control | [1] 97 % of control | dose: 100.0 mg/kg/injection, schedule: Q01DX009 (sc), vehicle: steriod suspending solution 95 % of control | dose: 100.0 mg/kg/injection, schedule: Q04DX003 (ip), vehicle: steriod suspending solution 102 % of control | [2] 94 % of control | dose: 200.0 mg/kg/injection, schedule: Q01DX009 (sc), vehicle: steriod suspending solution 103 % of control | dose: 200.0 mg/kg/injection, schedule: Q04DX003 (ip), vehicle: steriod suspending solution 102 % of control | [3] 90 % of control | dose: 400.0 mg/kg/injection, schedule: Q04DX003 (ip), vehicle: steriod suspending solution 101 % of control

CCC/C(=N\NC(=O)c1ccc(OC)cc1)c1ccccc1
inactive: dose: 50.0 mg/kg/injection, schedule: Q01DX009 (ip), vehicle: saline with Tween-80 94 % of control | [4] 102 % of control | [5] 94 % of control

CC1(c2cccc3ccccc23)NC(=O)c2ccccc2N1 (stereo unspecified)
inactive: [6] 98 % of control | [7] 103 % of control | dose: 150.0 mg/kg/injection, schedule: Q01DX009 (ip), vehicle: Klucel (hydroxypropylcellulose) (HPC) 101 % of control

CCCCCCCCOP(=O)(OCCCCCCCC)c1ccccc1
inactive: dose: 10.0 mg/kg/injection, schedule: Q01DX001 (ip), vehicle: acetone 91 % of control | dose: 10.0 mg/kg/injection, schedule: Q04DX003 (ip), vehicle: acetone 97 % of control | dose: 12.5 mg/kg/injection, schedule: Q01DX009 (ip), vehicle: saline 94 % of control | dose: 20.0 mg/kg/injection, schedule: Q01DX001 (ip), vehicle: acetone 91 % of control | dose: 20.0 mg/kg/injection, schedule: Q04DX003 (ip), vehicle: acetone 92 % of control | dose: 25.0 mg/kg/injection, schedule: Q01DX009 (ip), vehicle: saline 94 % of control | dose: 40.0 mg/kg/injection, schedule: Q01DX001 (ip), vehicle: acetone 86 % of control | dose: 40.0 mg/kg/injection, schedule: Q04DX003 (ip), vehicle: acetone 97 % of control | dose: 50.0 mg/kg/injection, schedule: Q01DX009 (ip), vehicle: saline 94 % of control | dose: 75.0 mg/kg/injection, schedule: Q01DX009 (ip), vehicle: saline 112 % of control | dose: 115.0 mg/kg/injection, schedule: Q01DX009 (ip), vehicle: saline 106 % of control | dose: 170.0 mg/kg/injection, schedule: Q01DX009 (ip), vehicle: saline 98 % of control

NC(=O)c1cc(I)cc(I)c1N
inactive: dose: 100.0 mg/kg/injection, schedule: Q01DX001 (ip), vehicle: saline with Tween-80 95 % of control | dose: 200.0 mg/kg/injection, schedule: Q01DX001 (ip), vehicle: saline with Tween-80 97 % of control | dose: 400.0 mg/kg/injection, schedule: Q01DX001 (ip), vehicle: saline with Tween-80 98 % of control

O=C(Nc1ccccc1C(F)(F)F)N(Cc1ccccc1)Cc1ccccc1
inactive: [7] 101 % of control | [8] 87 % of control | dose: 400.0 mg/kg/injection, schedule: Q01DX009 (ip), vehicle: Klucel (hydroxypropylcellulose) (HPC) 95 % of control

Cc1ccc(S(=O)(=O)Nc2ccc(C(=O)Cl)cc2)cc1
inactive: dose: 100.0 mg/kg/injection, schedule: Q04DX003 (ip), vehicle: gum acacia 95 % of control | dose: 200.0 mg/kg/injection, schedule: Q04DX003 (ip), vehicle: gum acacia 106 % of control | dose: 400.0 mg/kg/injection, schedule: Q04DX003 (ip), vehicle: gum acacia 90 % of control

COc1ccc(-c2cc(C(=O)O)c3ccc(C)cc3n2)cc1
inactive: [4] 103 % of control | [5] 95 % of control | [9] 96 % of control

COc1ccc([N+](=O)[O-])cc1CN(C)C(C)C
inactive: dose: 12.5 mg/kg/injection, schedule: Q01DX009 (ip), vehicle: Klucel (hydroxypropylcellulose) (HPC) 97 % of control | dose: 12.5 mg/kg/injection, schedule: Q04DX003 (ip), vehicle: Klucel (hydroxypropylcellulose) (HPC) 97 % of control | [10] 97 % of control | dose: 25.0 mg/kg/injection, schedule: Q04DX003 (ip), vehicle: Klucel (hydroxypropylcellulose) (HPC) 100 % of control | [6] 92 % of control | dose: 50.0 mg/kg/injection, schedule: Q04DX003 (ip), vehicle: Klucel (hydroxypropylcellulose) (HPC) 97 % of control

CCCCCC/S(C)=N\S(=O)(=O)c1ccc(Br)cc1 (stereo unspecified)
inactive: dose: 50.0 mg/kg/injection, schedule: Q01DX001 (ip), vehicle: carboxymethylcellulose (CMC) 100 % of control | [1] 103 % of control | [2] 97 % of control | [3] 114 % of control

CCOC(=O)CCCNCCCC(=O)OCC
inactive: [11] 97 % of control | [12] 103 % of control | [13] 114 % of control

CCc1ccc(NC2=NCCO2)cc1
inactive: dose: 12.5 mg/kg/injection, schedule: Q04DX003 (ip), vehicle: saline 112 % of control | [10] 100 % of control | dose: 25.0 mg/kg/injection, schedule: Q04DX003 (ip), vehicle: saline 114 % of control | [6] 95 % of control | dose: 50.0 mg/kg/injection, schedule: Q04DX003 (ip), vehicle: saline 101 % of control | dose: 100.0 mg/kg/injection, schedule: Q04DX003 (ip), vehicle: saline 102 % of control

CCOC(=O)C(=NNc1cccc(Br)c1)C(=O)OCC
inactive: [11] 98 % of control | [12] 94 % of control | [13] 96 % of control

Cc1cccc2c1/C(=N\Nc1ccc([N+](=O)[O-])cc1[N+](=O)[O-])CC(C)(C)C2
inactive: [4] 104 % of control | [5] 100 % of control | [9] 100 % of control

COc1ccc(NC(=S)NNC(=S)NNc2ccccc2)cc1
inactive: [7] 90 % of control | dose: 100.0 mg/kg/injection, schedule: Q04DX003 (ip), vehicle: Klucel (hydroxypropylcellulose) (HPC) 93 % of control | [8] 89 % of control | dose: 200.0 mg/kg/injection, schedule: Q04DX003 (ip), vehicle: Klucel (hydroxypropylcellulose) (HPC) 92 % of control | dose: 400.0 mg/kg/injection, schedule: Q04DX003 (ip), vehicle: Klucel (hydroxypropylcellulose) (HPC) 86 % of control

CC(=O)Nc1ccc(Cc2ccc(N)cc2)cc1
inactive: [11] 108 % of control | [12] 104 % of control

C=CCSc1nc2c(=O)[nH]c(N)nc2n1C1OC(CO)C(O)C1O (stereo unspecified)
inactive: dose: 100.0 mg/kg/injection, schedule: Q01DX005 (ip), vehicle: saline 100 % of control | dose: 200.0 mg/kg/injection, schedule: Q01DX005 (ip), vehicle: saline 103 % of control

CC1(C)N=C(N)N=C(N)N1c1ccc(OCCOc2ccc(NC(=O)CBr)cc2)cc1
inactive: dose: 120.0 mg/kg/injection, schedule: Q01DX009 (ip), vehicle: saline 124 % of control | dose: 176.0 mg/kg/injection, schedule: Q01DX009 (ip), vehicle: saline 112 % of control | dose: 266.0 mg/kg/injection, schedule: Q01DX009 (ip), vehicle: saline 107 % of control | dose: 400.0 mg/kg/injection, schedule: Q01DX009 (ip), vehicle: saline 98 % of control

CN(C)Cc1ccccc1C(O)(c1ccccc1)c1ccccc1CN(C)C
inactive: dose: 8.0 mg/kg/injection, schedule: Q01DX015 (ip), vehicle: carboxymethylcellulose (CMC) 91 % of control | dose: 16.0 mg/kg/injection, schedule: Q01DX015 (ip), vehicle: carboxymethylcellulose (CMC) 90 % of control | dose: 32.0 mg/kg/injection, schedule: Q01DX015 (ip), vehicle: carboxymethylcellulose (CMC) 88 % of control

NC(=S)N/N=C/c1ccc(O)c(C(=O)O)c1
inactive: dose: 15.0 mg/kg/injection, schedule: Q01DX Z (ip), vehicle: methylcellulose (MC) 97 % of control | dose: 30.0 mg/kg/injection, schedule: Q01DX Z (ip), vehicle: methylcellulose (MC) 95 % of control | dose: 60.0 mg/kg/injection, schedule: Q01DX Z (ip), vehicle: methylcellulose (MC) 95 % of control | dose: 120.0 mg/kg/injection, schedule: Q01DX Z (ip), vehicle: methylcellulose (MC) 97 % of control | dose: 250.0 mg/kg/injection, schedule: Q01DX Z (ip), vehicle: methylcellulose (MC) 91 % of control | dose: 375.0 mg/kg/injection, schedule: Q01DX Z (ip), vehicle: methylcellulose (MC) 89 % of control
